In brackets after ≈: the same amount, converted by molar mass. Like-named read-outs stand apart in the source and are kept apart here.
Key:
[1] = test system: COLO 205 (doxorubicin-sensitive) human colonic adenocarcinoma cells; test: MTT antiproliferative assay, COLO 205; type: cell-based; conditions: read-out: IC50 (µM) ± SD COLO 205
Procedure: (§1) The antiproliferative effects of the isolated phenanthrenes (compounds 1–19) were evaluated using human cancer cell lines, including doxorubicin-sensitive colonic adenocarcinoma COLO 205 and multidrug-resistant colonic adenocarcinoma COLO 320/MDR-LRP (which expresses P-glycoprotein [MDR1] and LRP), as well as non-cancerous human lung fibroblast CCD-19Lu cells. CCD-19Lu was chosen because it is a well-characterized, non-tumorigenic cell line commonly used to assess general cytotoxicity. Moreover, data from the literature support the use of lung fibroblast cell lines—including CCD-19Lu—as normal controls in studies involving colon cancer cells such as Colo 205 and Colo 320 [33]. The thiazolyl blue tetrazolium bromide (MTT) assay was employed to determine the concentration of each compound required to inhibit 50% of the cell viability (IC50), as summarized in Table 3.
(§2) The human colon adenocarcinoma cells—COLO 205 (CCL-222, doxorubicin-sensitive) and COLO 320/MDR-LRP (ATCC-CCL-220.1, multidrug-resistant, expressing P-gp)—were cultured in RPMI 1640 medium supplemented with 10% heat-inactivated fetal bovine serum, 2 mM of L-glutamine, 1 mM of sodium pyruvate, and 100 mM of HEPES. The non-cancerous human lung fibroblast cell line CCD-19Lu was maintained in Eagle’s Minimal Essential Medium (EMEM; containing 4.5 g/L of glucose) supplemented with a non-essential amino acid mixture, selected vitamins, and 10% heat-inactivated fetal bovine serum. All of the cell lines were detached using 0.25% trypsin and 0.02% EDTA for 5 min at 37 °C. The cell lines were obtained from LGC Promochem (Teddington, England).
(§3) Human colonic adenocarcinoma cell lines—doxorubicin-sensitive COLO 205 and multidrug-resistant COLO 320—as well as the non-cancerous human lung fibroblast cell line CCD-19Lu were used to evaluate the effects of the test compounds on cell proliferation. The assays were conducted in 96-well flat-bottomed microtiter plates. Stock solutions of the compounds were prepared in dimethyl sulfoxide (DMSO), with the final DMSO concentration kept below 1% in all samples. The compounds were diluted in 100 µL of the appropriate culture medium. Adherent cells were cultured in EMEM supplemented with 10% heat-inactivated fetal bovine serum and seeded into 96-well plates at a density of 6 × 10^3 cells per 100 µL per well. The cells were allowed to adhere for 24 h at 37 °C in a humidified incubator with 5% CO2. After incubation, the medium was removed and replaced with 100 µL of fresh medium. Serial dilutions of the compounds were prepared in separate plates and added to the cells, starting from a concentration of 100 µM with twofold serial dilutions (final concentration range: 100–0.19 µM). The cells were then incubated for 72 h at 37 °C. At the end of the incubation period, 20 µL of thiazolyl blue tetrazolium bromide (MTT) solution (5 mg/mL, Sigma) was added to each well. After 4 h of incubation at 37 °C, 100 µL of 10% sodium dodecyl sulfate (SDS) in 0.01 M HCl was added to solubilize the formazan crystals, and the plates were incubated overnight at 37 °C. Cell viability was assessed by measuring the optical density (OD) at 540/630 nm using a Multiscan EX ELISA reader (Thermo Labsystems, Cheshire, WA, USA).
(§4) The inhibitory concentration that reduced cell growth by 50% (IC50) was determined from the dose–response curves. The percent inhibition was calculated using the formula100 − ((OD_sample − OD_medium control)/(OD_cell control − OD_medium control)) × 100
(§5) Dose–response curves were generated by plotting the percent inhibition against the logarithm of the compound concentrations and fitted using Prism5 software (Version 6, GraphPad Software Inc., San Diego, CA, USA). The IC50 values were derived from four independent experiments conducted in parallel for each cell line and are reported as the mean values.

[2] = test system: COLO 320/MDR-LRP multidrug-resistant human colonic adenocarcinoma cells; test: MTT antiproliferative assay, COLO 320; type: cell-based; conditions: COLO 320 (multidrug-resistant), read-out: IC50 (µM) ± SD COLO 320
Procedure: as §1, §2, §3, §4, §5

[3] = test system: CCD-19Lu non-cancerous human lung fibroblast cells; test: MTT antiproliferative assay, CCD-19Lu; type: cell-based; conditions: 72 h, CCD-19Lu non-tumorigenic fibroblasts, read-out: IC50 (µM) ± SD CCD-19Lu
Procedure: as §1, §2, §3, §4, §5

[4] = test system: multidrug-resistant COLO 320 cells; test: Drug combination assay with doxorubicin (Chou-Talalay, MTT); type: cell-based, human; conditions: for CI at ED50 (combination index): combination with doxorubicin, COLO 320, 72 h, Chou-Talalay; for Interaction: interaction with doxorubicin in COLO 320, class from CI
Procedure: One promising approach involves the discovery of new bioactive natural products. To explore this, a chemosensitivity assay was conducted to examine the in vitro interactions between the isolated compounds and the antineoplastic agent doxorubicin, a substrate of P-glycoprotein (P-gp). A combination chemotherapy model was applied using human COLO 320 colon carcinoma cells. The combination index (CI), calculated according to the Chou–Talalay method, was used to evaluate drug–drug interactions, classifying them as synergistic (CI < 1), additive (CI = 1), or antagonistic (CI > 1) (Table 4).
The multidrug-resistant COLO 320 cell line was used to perform the drug combination assay. Doxorubicin (2 mg/mL, Teva Pharmaceuticals, Budapest, Hungary) was serially diluted horizontally, starting with 8.6 µM. The resistance modifier was subsequently diluted vertically, with the starting concentration determined based on the IC50 value. Doxorubicin was diluted horizontally in 100 µL, while the resistance modifiers were diluted vertically in 50 µL in the microtiter plate. The compounds and doxorubicin were prepared as separate dilutions. The cells were seeded at a density of 6 × 10^3 cells per well into 100 µL of medium and incubated for 24 h at 37 °C in a 5% CO2 atmosphere prior to treatment. After this period, the culture medium was removed, and 50 µL of fresh medium was added to each well, followed by the addition of 50 µL of the diluted compounds, resulting in a final volume of 200 µL per well. The plates were then incubated for 72 h at 37 °C under 5% CO2. The cell viability was assessed at the end of incubation using the MTT assay, as described previously. Drug interactions were analyzed using CompuSyn software (Version 1.00).
The dose–response curves for individual agents and their combinations were fitted to a linear model based on the median-effect equation to calculate the median effective dose (IC50) and the slope (m). The quality of the fit was evaluated using the linear correlation coefficient (r), and only data with r > 0.90 are reported. The extent of drug interaction was quantified using the combination index (CI), where CI ≈ 1 indicated an additive effect, CI < 1 signified synergy, and CI > 1 denoted antagonism.

[5] = test system: HT22 cells (mouse hippocampal neuroblastoma cell line); set-up: method as in doi:10.1007/s11101-018-9561-5, PMID 25794817; conditions: 100 µM, 24 h; cited from earlier work
[6] = test system: HeLa cells; set-up: method as in PMID 33348712; conditions: cited from earlier work
[7] = test system: NCI 90 KB (human epidermoid nasopharynx carcinoma) cells; set-up: method as in PMID 830696; conditions: NCI 90 KB cells; cited from earlier work
[8] = test system: SMMC-7721; set-up: method as in PMID 26072042; conditions: cited from earlier work
[9] = test system: HepG-2; set-up: method as in PMID 26072042; conditions: cited from earlier work
[10] = test system: MCF-7; set-up: method as in PMID 26072042; conditions: cited from earlier work
[11] = test system: HepG2 cells; conditions: cited from earlier work
[12] = set-up: method as in PMID 31125040; conditions: cited from earlier work

Row | IC50 ([1]; Homo sapiens, COLO 205, 72 h) [µM] | IC50 ([2]; Homo sapiens, COLO 320, 72 h) [µM] | Compound | IC50 [3] [µM] | CI at ED50 (combination index) [4] | Interaction [4] | decrease in MTT reduction [5] [%] | further results
1 | 52.7 | 49.7 | C=Cc1cc(O)cc2c1-c1ccc(O)c(C)c1CC2 [Compound 10, effusol] | 96 ± 2.66 | 1.123 | slight antagonism | 9.9 | IC50 ([1]; 72 h): 52.7 ± 1.85 µM; IC50 ([2]; 72 h): 49.7 ± 2.12 µM; IC50 [6]: 2.3 µM
2 | 31.9 ± 1.91 | 36.2 ± 3.81 | C=Cc1c(C)c(O)cc2c1-c1ccc(O)c(C)c1CC2 [Compound 11, juncusol] | 44.4 ± 2.82 | 0.582 | synergism (0.3 < CI < 0.7, synergism) | 25.4 | ED50 [7]: 0.3 µg/mL (≈ 1.13 µM); IC50 [6]: 0.5 µM
3 | 50.2 ± 0.74 | 31.5 ± 2.65 | C=Cc1c(CO)ccc2c1CCc1c-2ccc(O)c1C [Compound 18] | 70.8 ± 3.25 | 0.189 |  |  | 
4 |  |  | C=Cc1cc(O)cc2c1-c1cc(-c3c(O)cc(C=C)c4c3ccc3c(C)c(O)ccc34)c(O)c(C)c1CC2 [effususin B] |  |  |  |  | IC50 [8]: 13.6 µM; IC50 [9]: 12.9 µM; IC50 [10]: 12.5 µM
5 |  |  | C=Cc1c(C)c(O)cc2c1CCc1c-2ccc(O)c1C [juncuenin B, reference compound] |  |  |  | 13.6 | 
6 |  |  | C=CC1=C(C)C(=O)C=C2c3ccc(O)c(C)c3CCC21O (stereo not shown) [juncuenin D, reference compound] |  |  |  | 23.7 | 
7 |  |  | juncunol |  |  |  |  | apoptotic cells ([11]; HepG2, concentration-dependent (IC50 value ± 25%)): increase in the number of apoptotic cells; cell cycle arrest ([11]; HepG2): G0/G1 phase; Δψm ([11]; HepG2): decrease in Δψm; IC50 ([11]; HepG2 cells): 18 µM; hemolytic properties [12]: no hemolytic properties

Row | Compound | IC50 ([1]; Homo sapiens, COLO 205, 72 h) [µM] | IC50 ([2]; Homo sapiens, COLO 320, 72 h) [µM] | IC50 [3] [µM] | CI at ED50 (combination index) [4] | Interaction [4] | decrease in MTT reduction [5] [%] | further results
8 | C=Cc1c(C)c(O)cc2c1ccc1c(C)c(O)ccc12 [Compound 8, dehydrojuncuenin B] | 20.7 ± 0.47 | 17.9 ± 1.59 | 22.8 ± 0.55 | 2.126 | antagonism (1.45 < CI < 3.3, antagonism) | 8.4 | 
